Results: patent US20210317090A1, “AMINO ACID DEPLETION AGENTS AS ANTIPROLIFERATIVE AGENTS” (University of Central Florida Research Foundation, Inc., priority 2018, published 2021)

Tests used:
L3.6pl cells [1] = experiment: Attached cell count (hemocytometer) after 72 h; type: cell-based, human
Protocol: In parallel with the above experiments, a dose dependence experiment was performed looking at how compound 10 at 0, 2, 5 and 7 μM affected L3.6pl cell attachment and cell number after 72 h incubation at 37° C. Successively more detached cells were observed as the concentration of compound 10 increased, particularly from 5 μM to 7 μM.
Cells were incubated with compound 10 for 72 h at 37° C. A 250 μM AG solution was incubated with the cells for 24 h prior to compound addition. Each condition was performed in duplicate.
This example illustrates aspects according to various embodiments pertaining to a 72 h experiment with Compound 10 in L3.6pl cells. Ten milliliters of a cell suspension containing L3.6pl human pancreatic cancer cells (50,000 cells/mL) and aminoguanidine ([…]) were placed in treated plastic Petri dishes (d=9 cm) and incubated overnight at 37° C. After 24 h, the cells were dosed with compound 10 at 2 μM, 5 μM, or 7 μM. (Note: Stock solutions of 10 at 2, 5, and 7 mM were dissolved in phosphate buffered saline (PBS) and were filtered through a 0.2 μm filter prior to use. The experiments were maintained with a total volume of 10.01 mL where 10 mL of the cell suspension was placed in a plastic dish and each compound or the equivalent PBS volume was added to make up the total volume 10.01 mL for each dish. For example, for the control experiment PBS (10 μL) was added to make up the total volume (10 mL+10 μL=10.01 mL). After 72 h incubation, the cells were collected first by pipetting off the supernatant containing floating dead cells from the culture dish as well as media and placing them into 15 mL tubes. The supernatant containing floating cells was centrifuged (4 min at 1,000 rpm). The cell-free supernatant (supernatant #1) was collected into a new 15 mL tube and quantified (˜8.6 mL) and was then stored frozen and was later quantified by LCMS to investigate the media composition of particular polyamine and amino acid analytes. The attached cells on the dish were washed with PBS (5 mL). The PBS wash was removed by suction and additional PBS (2 mL) was added and again suctioned off to provide twice-washed cells still adhered to the dish. Trypsin (2 mL) was then added to each dish and incubated (3-5 min) until all the cells were detached. Fresh media (8 mL) was added to quench the trypsin. The cell solutions were pipetted into separate 15 mL tubes and centrifuged (4 min at 1,000 rpm). The resulting supernatant was removed to provide a pellet. The pellet was suspended in PBS (10 mL) and was counted by a hemocytometer to provide cell counts for each experimental condition. The pellet was then centrifuged (4 min at 1,000 rpm) and the supernatant removed and the remaining pellet was quantified via protein and polyamine analysis.

LAT-1 = biological target: T1, LAT-1 (Homo sapiens, UniProt Q01650); experiment: 3H-Leucine efflux assay; type: cell-based; settings: L3.6pl
T1 construct: endogenous in cells; host or cells: L3.6pl human pancreatic cancer cells
Source text: JPH203 is not toxic to L3.6pl cells over this concentration range and time interval. FIG. 10E is an example according to various embodiments, illustrating results obtained for a Leu uptake inhibition experiment with compound 10. Note: the y-axis in FIG. 10E is in CPM per ug of protein to normalize the data and account for any potential losses of cells due to toxicity of compound 10. FIG. 10F is an example according to various embodiments, illustrating results obtained for a Leucine efflux experiment with LAT-1 inhibitor JPH-203. Briefly, the efflux procedure involved cells pre-incubated with ‘hot’ leucine (3H labeled) and washed to remove unbound radiolabeled Leucine. The cells were then incubated in the presence and absence of unlabeled Leucine (100 μM) and/or the LAT-1 inhibitor JPH-203 (30 μM). In the presence of unlabeled leucine, the cells released ‘hot’ 3H-leucine into the media which was measured via scintillation/radioactivity counts. This efflux or release from within the cell was inhibited by the presence of the LAT-1 inhibitor, JPH-203 (30 μM, FIG. 10F). Since JPH203 inhibits the import of unlabeled leucine then less unlabeled Leucine will enter the cell and less efflux of radiolabeled Leucine molecules from inside the cell will be observed. This is consistent with JPH-203 being a LAT-1 inhibitor. FIG. 10G is an example according to various embodiments, illustrating results obtained for a two minute Leucine efflux experiment with compound 10. Cells were pre-incubated with ‘hot’ leucine (^3H labeled) and washed to remove unbound radiolabeled Leucine. The cells were then incubated in the presence and absence of unlabeled “cold” Leucine (100 μM) and/or the compound 10 (20 μM). In the presence of unlabeled ‘cold’ leucine, the cells released ‘hot’ ^3H-leucine into the media which was measured via scintillation/radioactivity counting. […] The efflux experiment was repeated and the time for monitoring efflux increased to 30 minutes. […] In summary, compound 10 inhibits Leucine uptake and facilitates LAT-1 mediated efflux.
^3H-Leucine Efflux Assay ^3H-Leucine efflux experiments were performed according to the protocol developed by Hälfliger et al. (2018) (referenced below) with the following changes. Briefly, cells were preloaded with 12 μM stock of L-[^3H]leucine (79 Ci/mmol) to give a final concentration of ^3H-leucine was 1.2 μM in each well. […] The medium was then collected and mixed with scintillation fluid (Scintiverse™ BD Cocktail) and radioactivity measured (Beckman Coulter LS 6500 Multi-Purpose Scintillation Counter). […] The lysate (300 μL) was mixed with scintillation fluid and radioactivity was counted. Relative efflux was expressed as percentage radioactivity=100%×(radioactivity of medium)/(radioactivity of the medium+radioactivity of the cells). […]

L3.6pl cells [2] = experiment: Intracellular polyamine and Ant-44 levels (N-dansylation, HPLC) in L3.6pl cells; type: cell-based, human; settings: 3.3 μM compound 10 (SR isomer), FIG. 10I

T1 sequence (Q01650 whole entry): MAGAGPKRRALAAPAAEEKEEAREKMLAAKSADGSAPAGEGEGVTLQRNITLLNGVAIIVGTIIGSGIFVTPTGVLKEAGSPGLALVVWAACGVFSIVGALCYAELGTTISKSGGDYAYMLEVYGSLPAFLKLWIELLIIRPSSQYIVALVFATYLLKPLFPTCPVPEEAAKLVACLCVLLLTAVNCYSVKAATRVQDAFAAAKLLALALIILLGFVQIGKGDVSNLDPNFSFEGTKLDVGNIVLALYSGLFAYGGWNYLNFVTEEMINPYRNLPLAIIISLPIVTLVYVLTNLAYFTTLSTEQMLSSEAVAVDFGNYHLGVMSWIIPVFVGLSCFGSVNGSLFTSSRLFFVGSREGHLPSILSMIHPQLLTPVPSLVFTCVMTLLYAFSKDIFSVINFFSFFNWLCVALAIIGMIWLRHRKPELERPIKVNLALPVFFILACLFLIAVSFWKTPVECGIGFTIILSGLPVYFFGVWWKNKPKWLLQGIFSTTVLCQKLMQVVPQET
T1 sequence (P08195 102-630 partner): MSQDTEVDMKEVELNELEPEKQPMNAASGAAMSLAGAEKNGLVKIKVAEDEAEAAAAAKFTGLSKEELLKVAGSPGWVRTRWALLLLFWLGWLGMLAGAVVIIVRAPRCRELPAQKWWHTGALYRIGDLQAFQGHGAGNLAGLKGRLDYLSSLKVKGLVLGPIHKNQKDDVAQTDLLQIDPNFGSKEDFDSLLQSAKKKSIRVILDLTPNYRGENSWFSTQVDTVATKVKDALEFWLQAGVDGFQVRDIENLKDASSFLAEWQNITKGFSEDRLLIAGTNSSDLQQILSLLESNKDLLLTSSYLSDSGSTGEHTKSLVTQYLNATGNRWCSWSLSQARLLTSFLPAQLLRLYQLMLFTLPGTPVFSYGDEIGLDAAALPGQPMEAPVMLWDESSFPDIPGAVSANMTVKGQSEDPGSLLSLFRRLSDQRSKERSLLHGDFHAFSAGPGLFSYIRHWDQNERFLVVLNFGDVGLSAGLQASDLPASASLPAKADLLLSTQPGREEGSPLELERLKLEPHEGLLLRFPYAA

3H-leucine efflux, compound alone (LAT-1; 2 min, JPH-203 30 μM or compound 10 20 μM): slight increase in efflux
efflux of radiolabeled leucine (LAT-1; 30 minutes, in presence and absence of leucine (1 μM), vs untreated control (FIG. 10H)): increased efflux
Structure (SMILES): CC(C)CCN1CCN(C(CNCc2ccccc2)CC2CCCCC2)CC1CC(C)C.Cl.Cl.Cl (centres unmarked) [Compound 10, Benzyl-{3-cyclohexyl-2-[3-isobutyl-4-(3-methyl-butyl)-piperazin-1-yl]-propyl}-amine trihydrochloride salt]
Cell Count (L3.6pl cells [1]; 2 μM): 9.40 millions
Cell Count (L3.6pl cells [1]; 5 μM): 4.35 millions
loss of the attached cell population (L3.6pl cells [1]; 5 μM): 58%
Cell Count (L3.6pl cells [1]; 7 μM): 2.10 millions
loss of the attached cell population (L3.6pl cells [1]; 7 μM): 80%
intracellular levels of polyamine metabolites (L3.6pl cells [2]): lower levels of polyamines and N-acetylspermine
